# Results from patent US7345030B2, “Use of n-acetyl-d-aminoglycosamine in treatment of organ lesions related to toxicosis of drugs or chemicals” (priority 2003, dated 2008).
# Tests used:
# Proteus Mirabilis = assay: Promoting wave test (bio-wave model); format: cell-based; settings: final concentration 0.5% in LB plate, 37° C., 9 hours, compared with control sample
# Excerpt: 1. Experimental Materials and Method:
# 1.1 Sample: Pure Compound of Formula (I)
# 1.2 Experimental Materials:
# • Strain: Proteus Mirabilis that meets the following biochemical reaction characteristics: dynamics (+), urease (+), lactose (−), glucose (+), H2S (−), phenylalanine deaminase (+). • Culture medium: modified LB culture medium (components: 1% tryptones, 0.5% yeast extract, 1% sodium chloride, 0.1% glucose, 0.002% TTC, and pH=7.2 to 7.4). 1.3 Experimental Method: • Control sample: the Proteus Mirabilis were inoculated at the center of LB plate, and incubated at 37° C. for 9 hours; • Test sample: the compound of formula (I) with a final concentration of 0.5% was added to the LB plate, then the Proteus Mirabilis were inoculated by the same method, and cultured at 37° C. for 9 hours. 2. […] It is anticipated that this wave-promoting function could treat organ lesions caused by toxicants and drugs.
# Acute toxicity test = format: in vivo
# Excerpt: (§1) The toxicological test of the compound of formula (I) includes: • 1. Acute toxicity test: including tests of oral administration, intravenous injection administration, and maximum limit amount for administration; • 2. Ames test; • 3. Micronucleus test of mouse bone marrow cell; • 4. Abnormality test of mouse sperm; • 5. Aberration test of mouse testis chromosome; • 6. Chronic lethal test; • 7. Sub-chronic toxicity (feed for 90 days) test; • 8. Traditional deformity-inducing test.
# [1] = Long-period toxicity test; format: in vivo; settings: maximum dosage up to 1 g/kg, treatment and observation for four weeks
# Excerpt: as §1
# mice = assay: Reproduction test; format: in vivo; settings: mice fed 7 mg/kg for 3 generations
# [2] = tested on: Kunming mice fed with methanol; assay: Methanol poisoning test; format: in vivo; settings: 15 mice, i.p. 0.1 g/ml aqueous solution
# Procedure: 1. Methanol Poisoning Test
# (§2) 30 Kunming mice were randomly divided into two groups, i.e., 15 mice in test group (I) and 15 mice in test group (II), and another 15 mice were used as control. Each mouse was fed with methanol in a dose of 0.2 ml/20 g bodyweight. […] The mice of the test group (I) were intra-peritoneally injected with an aqueous solution of N-acetyl-D-glucosamine having a concentration of 0.1 g/ml in a dose of 0.1 ml/20 g bodyweight, just after they were fed with methanol. […] The mice of the test group (II) were intra-peritoneally injected with an aqueous solution of N-acetyl-D-glucosamine having a concentration of 0.1 g/ml in a dose of […], just after they were fed with methanol. […] 2. Rogor Poisoning Test 30 Kunming mice were randomly divided into three groups, i.e., 10 mice in control group, 10 mice in test group (I) and 10 mice in test group (II). The mice were orally fed with 10000 times diluted rogor stock solution (commercially obtained from Chongqing Agriculture Chemicals Group, 500 ml/bottle, standard: GB15583-1995) in a dose of 0.5 ml per mouse for consecutive 3 days. […] The mice of the test groups were treated by intra-peritoneal injection of an aqueous solution of N-acetyl-D-glucosamine having a concentration of 5 g/100 ml in a dose of 0.2 ml for the test group (I) and a dose of 2 ml for the test group (II). […] 3. Lead Poisoning Test 30 Kunming mice were made as lead poisoning models by a method of feeding litharge. […] The mice of the test group (I) were treated by intra-peritoneal injection of N-acetyl-D-glucosamine in a dose of 0.2 ml×10% (weight/volume), and the mice of the test group (II) were treated by intra-peritoneal injection with N-acetyl-D-glucosamine in a dose of 2 ml×10% (weight/volume). The death rate of mice was separately 7/10 and 2/10 within 3 days, and the death rate of mice was 1/3 and 0/8 within the following 4 days. […] According to the above examples, N-acetyl-D-glucosamine can effectively eliminate toxic effects of at least toxicants such as metal ions, organophosphorus pesticides, methanol, etc. that have different action mechanisms.
# [3] = tested on: Kunming mice fed with rogor; assay: Rogor poisoning test; format: in vivo; settings: 10 mice, i.p. 5 g/100 ml aqueous solution
# Procedure: 30 Kunming mice were randomly divided into two groups, i.e., 15 mice in test group (I) and 15 mice in test group (II), and another 15 mice were used as control. Each mouse was fed with methanol in a dose of 0.2 ml/20 g bodyweight. […] The mice of the test group (I) were intra-peritoneally injected with an aqueous solution of N-acetyl-D-glucosamine having a concentration of 0.1 g/ml in a dose of 0.1 ml/20 g bodyweight, just after they were fed with methanol. […] The mice of the test group (II) were intra-peritoneally injected with an aqueous solution of N-acetyl-D-glucosamine having a concentration of 0.1 g/ml in a dose of […], just after they were fed with methanol. […] 2. Rogor Poisoning Test 30 Kunming mice were randomly divided into three groups, i.e., 10 mice in control group, 10 mice in test group (I) and 10 mice in test group (II). The mice were orally fed with 10000 times diluted rogor stock solution (commercially obtained from Chongqing Agriculture Chemicals Group, 500 ml/bottle, standard: GB15583-1995) in a dose of 0.5 ml per mouse for consecutive 3 days. […] The mice of the test groups were treated by intra-peritoneal injection of an aqueous solution of N-acetyl-D-glucosamine having a concentration of 5 g/100 ml in a dose of 0.2 ml for the test group (I) and a dose of 2 ml for the test group (II). […] 3. […]
# [4] = tested on: Kunming mice lead poisoning models (litharge); assay: Lead poisoning test; format: in vivo
# Procedure: as §2
# [5] = test group (I), 0.1 ml/20 g bodyweight
# [6] = test group (II), 2 ml/20 g bodyweight
# [7] = test group (I), i.p. 0.2 ml×10% (weight/volume)
# [8] = test group (II), i.p. 2 ml×10% (weight/volume)
smiles,measurement,setting,value
"CC(=O)N[C@@H]1[C@@H](O)[C@H](O)[C@@H](CO)O[C@H]1O [compound of formula (I), N-acetyl-D-glucosamine]",wave pattern of the colony (bio-wave promoting function),Proteus Mirabilis,many fine waves on each ring
same,dosage at which the acute toxicosis reaction had not appeared,Acute toxicity test,more than 2 g/kg
same,intoxication reaction in long-period toxicity test,[1],no intoxication reaction
same,"influence on pregnancy, birth, nurse and growth of baby mice",mice,no influence
same,mice sequentially died,[2]; [5],5 mice
same,mice with obvious psychiatric symptoms,[2]; [5],2 mice
same,mice blind after 2 hours,"[2]; test group (I), 0.1 ml/20 g bodyweight, just after methanol 0.2 ml/20 g",8 mice
same,blind mice,[2]; [6],no mouse was blind
same,mice died within 12 hours,[2]; [6],2 mice
same,mice with delirium and myasthenia of limbs,[2]; [6],4 mice
same,mice died,"[3]; test group (I), 0.2 ml",4 mice
same,mice died,"[3]; test group (II), 2 ml",1 mouse
same,death rate within 3 days,[4]; [7],7/10
same,death rate within the following 4 days,[4]; [7],1/3
same,death rate within 3 days,[4]; [8],2/10
same,death rate within the following 4 days,[4]; [8],0/8
